These are literature values, as cited in PMC12458691 (Inorganic Chemistry, 2025).

SMILES strings stand for the structures.

The conditions of series [1]: Table S3, 0.15 M NaClO4, 298.1 K; ref 1 of the SI; cited from earlier work.
For series [2] the following is noted: Table S2, 0.15 M NaClO4, 298.1 K, ref 1 of the SI, cited from earlier work.
Details of series [3]: method as in earlier work. As to conditions: Table S3, 0.15 M NaClO4, 298.1 K; ref 1 of the SI; cited from earlier work.
Details of series [4]: method as in footnotes c–f, numbers not given. Conditions: Cu2+ complexes/salt/enzyme, literature data for comparison; ref footnotes c–f, numbers not given; cited from earlier work.
Details of series [5]: method as in number not given. As to conditions: Mn2+ complexes of the ligands, recently reported; ref number not given; cited from earlier work.

Consider `CN1CCN(C)Cc2cccc(n2)CN(C)CC1` [^ H PyNMe 3], for which, in series [1], the “log K, [CuL(OH)]+ + H2O ⇄ [CuL(OH)2] + H+” value is listed as -11.31(8) and the “log K, [CuL]2+ + H2O ⇄ [CuL(OH)]+ + H+” value is on record as -8.53(4). In series [2] (potentiometry), the “log K, H + HL ⇄ H2L (stepwise protonation constant)” value is 7.37(1) and the “log K, H + L ⇄ HL (stepwise protonation constant)” value was 10.88(1). In addition, the “log β (∑log K, protonation)” value in series [2] is reported as 18.25. For the same compound, in series [3], the “log K, Fe2+ + L ⇄ [FeL]2+ (stability constant)” value is 9.72(2); the “log K, [FeL(OH)]+ + H2O ⇄ [FeL(OH)2] + H+” value is -10.58(5); the “log K, [FeL]2+ + H2O ⇄ [FeL(OH)] + H+” value is recorded as -9.08(4). For the same compound, the “k cat (SOD catalytic constant)” value in series [4] is 1.2 10^6 M^–1 s^–1.

For `COc1cc2nc(c1)CNCCNCCNC2` [^ MeO PyNH 3], in series [5], the “TON of catalase activity of the Mn2+ complexes” value (shortened to “TON … of the Mn2+ complexes”) was 25–37.

On to `Oc1cc2nc(c1)CNCCNCCNC2` [^ OH PyNH 3], for which the “TON … of the Mn2+ complexes” value in series [5] is 25–37.

Consider `c1cc2nc(c1)CNCCNCCNC2` [^ H PyNH 3], for which, in series [1], the “log K, [CuL(OH)]+ + H2O ⇄ [CuL(OH)2] + H+” value is listed as -10.7(1) and the “log K, [CuL]2+ + H2O ⇄ [CuL(OH)]+ + H+” value is -8.68(8). In addition, in series [2] (potentiometry), the “log K, H + H2L ⇄ H3L (stepwise protonation constant)” value is recorded as 1.90(1); the “log K, H + HL ⇄ H2L (stepwise protonation constant)” value is 7.96(1); the “log K, H + L ⇄ HL (stepwise protonation constant)” value was 10.54(1). The “log β (∑log K, protonation)” value in series [2] was 20.40. In series [5], the “TON … of the Mn2+ complexes” value is reported as 25–37. In series [3], the “log K, Fe2+ + L ⇄ [FeL]2+ (stability constant)” value was 12.68(2) and the “log K, [FeL]2+ + H2O ⇄ [FeL(OH)] + H+” value is -6.94(5). For the same compound, the “k cat (SOD catalytic constant)” value in series [4] was 1.7 10^6 M^–1 s^–1.
